The experiment concerns the target T1, rhAOC1 (Homo sapiens, UniProt P19801).
T1 construct: purchased R&D
T1 sequence (P19801 20-751): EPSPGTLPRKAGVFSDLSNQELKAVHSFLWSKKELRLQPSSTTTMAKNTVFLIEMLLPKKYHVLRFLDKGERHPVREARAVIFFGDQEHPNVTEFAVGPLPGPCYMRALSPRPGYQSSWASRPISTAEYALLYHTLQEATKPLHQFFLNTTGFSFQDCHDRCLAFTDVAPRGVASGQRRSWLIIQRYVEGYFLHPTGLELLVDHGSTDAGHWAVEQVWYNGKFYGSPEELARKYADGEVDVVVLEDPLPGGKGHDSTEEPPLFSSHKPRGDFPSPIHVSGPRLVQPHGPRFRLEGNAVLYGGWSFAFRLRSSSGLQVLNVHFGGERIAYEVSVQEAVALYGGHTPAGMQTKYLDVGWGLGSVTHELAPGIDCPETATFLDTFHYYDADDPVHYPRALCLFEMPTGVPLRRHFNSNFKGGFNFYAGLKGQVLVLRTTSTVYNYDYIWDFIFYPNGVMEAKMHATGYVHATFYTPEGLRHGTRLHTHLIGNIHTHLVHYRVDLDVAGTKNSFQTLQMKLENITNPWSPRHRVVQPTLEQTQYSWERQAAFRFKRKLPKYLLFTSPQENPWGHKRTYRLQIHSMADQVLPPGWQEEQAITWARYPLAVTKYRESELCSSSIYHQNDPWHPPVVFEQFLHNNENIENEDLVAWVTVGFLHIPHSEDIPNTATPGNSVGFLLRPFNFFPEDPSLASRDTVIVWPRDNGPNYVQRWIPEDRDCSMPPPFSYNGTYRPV
The experiment can be described thus: Selectivity against rhAOC1 enzyme (Biological Example 1). Format: biochemical. Conditions: Table 1; histamine substrate, Amplex Red/HRP. The procedure: 2. Selectivity of Compounds Against rhAOC1 Enzyme
(1) Instrument, Consumable and Reagent
Microplate reader (Perkin Elmer, Nivo 5S), black unclear-bottom 96-well plate (Corning) and rhAOC1 (R&D)
(2) Preparation of Concentration Gradient Compound Solutions
An appropriate amount of the compound to be tested was taken, dissolved in DMSO to 10 mM and then stored. Before the study, an appropriate amount of mother liquor of the 10 mM compound to be tested was taken and gradiently diluted 3-fold with DMSO, 10 concentration gradients in total. Each concentration gradient was then diluted 10-fold with 0.1 M of PBS.
(3) Preparation of Enzyme Solutions
An appropriate amount of rhAOC1 mother liquor with a concentration of 0.441 mg/mL was taken and diluted with an appropriate amount of 50 mM HEPES buffer solution to obtain enzyme solutions of 4× concentrations.
(4) Preparation of Substrate Mixtures of 2× Concentrations
An appropriate amount of histamine was weighed and dissolved with 50 mM of HEPES buffer solution to obtain 20 mM of histamine solution. The histamine solution was added with 2 mM of Amplex Red mother liquor and 500 U/mL of HRP mother liquor and diluted with 50 mM of HEPES buffer solution to obtain substrate mixtures of 2× concentrations.
10 μL compound solutions of different concentrations, 25 μL rhAOC1 enzyme solutions of 4× concentrations and 15 μL of 50 mM HEPES buffer solution were first added into a 96-well plate, shaken to be mixed uniformly and then incubated at 37° C. for 30 min. 50 μL substrate mixtures of 2× concentrations were then added into each well, and the microplate reader was immediately used to detect fluorescence intensity of each well with 580 nm (20 nm) exciting light and 620 nm (10 nm) emission light for 5 min each time, 30 min in total. […]
V: fluorescence change rate; Ft: fluorescence reading at time point t; F0: initial fluorescence reading; Time: duration t; Vcmpd: fluorescence change rate of tested compound; Vmax: Max hole fluorescence change rate. […]

Structures are written as SMILES. pIC50: −log10 of the molar value. Structures can show the parent of a compound that is named as a salt.

The pIC50 is the negative decadic logarithm of the IC50, by convention in mol/L. As to `NC/C(=C\F)Cn1cc2c(n1)CCN(C1CC1)C2=O` [Compound A1, (E)-2-(2-(aminomethyl)-3-fluoroallyl)-5-cyclopropyl-2,5,6,7-tetrahydro-4H-pyrazolo[4,3-c]pyridin-4-one], the pIC50 was 4.66. As to `NC/C(=C\F)Cn1ncc2c1CCN(C1CC1)C2=O` [Compound A2 hydrochloride, (E)-1-(2-(aminomethyl)-3-fluoroallyl)-5-cyclopropyl-1,5,6,7-tetrahydro-4H-pyrazolo[4,3-c]pyridin-4-one], the pIC50 was less than 5.00.

The record behind these values is US12371432B2, “Haloallylamine compounds and application thereof” (TransThera Sciences (Nanjing), Inc., priority 2019, dated 2025).
